In article PMC5865165, “Mechanism of action of the third generation benzopyrans and evaluation of their broad anti-cancer activity in vitro and in vivo” (Scientific Reports, 2018):

Assays:
Assay in all cases: cells
Design in all cases: species or system melanoma cell lines (3D spheres); 3D melanoma tumour sphere viability, CellTiter-Glo 3D luminescence, 7-point dose response
[1] = test system: A15; settings: 3D tumour spheres, 72 h
Method: (§1) Dose responses to TRX-E-009-1 and TRX-E-002-1 were performed using 3D tumour sphere cultures of 21 melanoma cell lines. Cells were dissociated and seeded[17] at previously optimized densities into 384-well Ultra-Low Attachment plates (#3827, Corning). Cells were treated the following day with a 7 point 3-fold dilution series, 5.4 µM to 7.4 nM using a Sciclone ALH 3000 [compound left out] handling robot. Changes in cell viability were assayed at 72 hours using the Cell Titre Glo 3D assay (#G9683, Promega), luminescence reads were performed on a SynergyMx Plate Reader (BioTek Instruments). Luminescence values were normalized to the DMSO/vehicle control prior to comparisons. […] A second independent panel of melanoma cell lines grown as tumour spheres was assessed for sensitivity to both TRX-E-009-1 and TRX-E-002-1. […] As found with the Oncopanel melanoma cell lines, a subset (one third) of the cell lines were sensitive to killing by these BP compounds, with <20% viability at the highest concentration tested. These lines will be referred to as sensitive. The cell lines with >25% viability at the highest dose appear comparatively resistant to killing by the compounds and are referred to as resistant. Subsequent experiments utilized A2058, D04, SKMEL13, and A375 as representative of sensitive cell lines, while A15, SKMEL28, C013, and C002 were used to assess the effects of TRX-E-009-1 and TRX-E-002-1 on resistant lines.

[2] = test system: A2058; settings: Homo sapiens, A2058; 3D tumour spheres, 72 h
Method: as §1

[3] = test system: A375; settings: Homo sapiens, A-375; 3D tumour spheres, 72 h
Method: as §1

[4] = test system: BL; settings: 3D tumour spheres, 72 h
Method: as §1

[5] = test system: C002; settings: 3D tumour spheres, 72 h
Method: as §1

[6] = test system: C013; settings: 3D tumour spheres, 72 h
Method: as §1

[7] = test system: C045; settings: 3D tumour spheres, 72 h
Method: as §1

[8] = test system: C052; settings: 3D tumour spheres, 72 h
Method: as §1

[9] = test system: C054; settings: 3D tumour spheres, 72 h
Method: as §1

[10] = test system: D04; settings: 3D tumour spheres, 72 h
Method: as §1

[11] = test system: D20; settings: 3D tumour spheres, 72 h
Method: as §1

[12] = test system: D25; settings: 3D tumour spheres, 72 h
Method: as §1

[13] = test system: D28; settings: 3D tumour spheres, 72 h
Method: as §1

[14] = test system: HT144; settings: Homo sapiens, HT-144; 3D tumour spheres, 72 h
Method: as §1

[15] = test system: MM329; settings: 3D tumour spheres, 72 h
Method: as §1

[16] = test system: MM370; settings: 3D tumour spheres, 72 h
Method: as §1

[17] = test system: MM415; settings: 3D tumour spheres, 72 h
Method: as §1

[18] = test system: MM603; settings: 3D tumour spheres, 72 h
Method: as §1

[19] = test system: MM96L; settings: Homo sapiens, MM96L; 3D tumour spheres, 72 h
Method: as §1

[20] = test system: SKMEL13; settings: 3D tumour spheres, 72 h
Method: as §1

[21] = test system: SKMEL28; settings: Homo sapiens, SK-MEL-28; 3D tumour spheres, 72 h
Method: as §1

Molecule `COc1cc([C@@H]2COc3c(ccc(O)c3C)[C@@H]2c2ccc(O)c(F)c2)cc(OC)c1O` (racemic) [TRX-E-009-1] has an IC50 [1] of 489 nM, an IC50 [2] of 292 nM and an IC50 [3] of 321 nM. The IC50 [4] was 340 nM, the IC50 [5] was 977 nM and the IC50 [6] was 318 nM. For the same molecule, the IC50 [7] was 461 nM, the IC50 [8] was 292 nM and the IC50 [9] was 857 nM. For the same molecule, the IC50 [10] was 253 nM, the IC50 [11] was 1110 nM and the IC50 [12] was 5020 nM. It also gave an IC50 [13] of 787 nM, an IC50 [14] of 233 nM and an IC50 [15] of 178 nM. For the same molecule, the IC50 [16] was 290 nM, the IC50 [17] was 323 nM and the IC50 [18] was 284 nM. It also gave an IC50 [19] of 281 nM, an IC50 [20] of 244 nM and an IC50 [21] of 4580 nM.
